Results reported in patent US10982284B2, “Compositions and methods APC, CREB, and BAD pathways to assess and affect cancer” (H. Lee Moffitt Cancer Center and Research Institute, Inc., priority 2011, dated 2021).

Legend:
Experiment in all cases: CellTiter-Blue cell viability assay
Type in all cases: cell-based, human
C13 = C13 ovarian cancer cell line, 72 hours, 50% reduction in growth/viability
Text: (§1) Ovarian cancer cell lines were obtained from the American Type Culture Collection (Manassas, Va.) (CAOV3, OV90, OVCAR3, SKOV3, TO[…]); from the European Collection of Cell Cultures, Salisbury, UK (A2780CP, A2780S); or from Kyoto University, Kyoto, Japan ([…], Tyknu, and TyknuC is R) or were kind gifts from Dr. Patricia Kruk, Department of Pathology, College of Medicine, University of South Florida, Tampa, Fla., and Susan Murphy, PhD, Dept of OBGYN/Division of GYN Oncology, Duke University, Durham, N.C. […] Cell lines were maintained in RPMI-1640 (Invitrogen, Carlsbad, Calif.) supplemented with 10% fetal bovine serum (Fisher Scientific, Pittsburgh, Pa.), 1% sodium pyruvate, 1% penicillin/streptomycin (Cellgro, Manassas, Va.), and 1% nonessential amino acids (HyClone, Hudson, N.H.). Mycoplasma testing was performed every 6 months following manufacturer's protocol (Lonza, Rockland, Me.). Drug activity was evaluated using a high-throughput CellTiter-Blue cell viability assay. […] After cell adherence, increasing concentrations of cisplatin, carboplatin (Sigma-Aldrich, St. Louis, Mo.), paclitaxel (Sequoia Research Products Ltd., Pangbourne, UK), or carboplatin plus paclitaxel (carbotaxol: constant molar ratio of carboplatin to paclitaxel of 20,000:1) were added to appropriate wells using an automated pipetting station. Four replicate wells were used for each drug concentration and vehicle controls. […] The cells were incubated with the drug for 72 hours, and 5 μL of CellTiter-Blue reagent (Promega Corp) was added to each well. Fluorescence was read at […] using a Synergy 4 microplate reader (Bio-Tek Instruments, Inc., Winooski, Vt.).

OVCAR2 = OVCAR2 ovarian cancer cell line, 72 hours, 50% reduction in growth/viability
Text: as §1

IMCC3 = IMCC3 ovarian cancer cell line; 72 hours; 50% reduction in growth/viability
Text: as §1

OVCAR5 = OVCAR5 ovarian cancer cell line, 72 hours, 50% reduction in growth/viability
Text: as §1

OVCAR8 = OVCAR8 ovarian cancer cell line, 72 hours, 50% reduction in growth/viability
Text: as §1

HeyA8 = HeyA8 ovarian cancer cell line, 72 hours, 50% reduction in growth/viability
Text: as §1

OVCA420 = OVCA420 ovarian cancer cell line; 72 hours; 50% reduction in growth/viability
Text: as §1

Ovary1847 = Ovary1847 ovarian cancer cell line, 72 hours, 50% reduction in growth/viability
Text: as §1

FUOV1 = FUOV1 ovarian cancer cell line, 72 hours, 50% reduction in growth/viability
Text: Ovarian cancer cell lines were obtained from the American Type Culture Collection (Manassas, Va.) (CAOV3, OV90, OVCAR3, SKOV3, TOV112D); from the European Collection of Cell Cultures, Salisbury, UK (A2780CP, A2780S); or from Kyoto University, Kyoto, Japan (CHI, CHIcisR, M41, M41CSR, Tyknu, and TyknuC is R) or were kind gifts from Dr. Patricia Kruk, Department of Pathology, College of Medicine, University of South Florida, Tampa, Fla., and Susan Murphy, PhD, Dept of OBGYN/Division of GYN Oncology, Duke University, Durham, N.C. (A2008, C13, CAOV2, FUOV1, HeyA8, IGR-OV1, IMCC3, IMCC5, MCAS, OV2008, OVCA420, OVCA429, OVCA432, OVCA433, OVCAR4, OVCAR5, OVCAR8, Dov13, BG1, Ovary1847, OVCAR10, OVCAR2, SK-OV-4).
Cell lines were maintained in RPMI-1640 (Invitrogen, Carlsbad, Calif.) supplemented with 10% fetal bovine serum (Fisher Scientific, Pittsburgh, Pa.), 1% sodium pyruvate, 1% penicillin/streptomycin (Cellgro, Manassas, Va.), and 1% nonessential amino acids (HyClone, Hudson, N.H.). […]
Drug activity was evaluated using a high-throughput CellTiter-Blue cell viability assay. […] Fluorescence was read at […] using a Synergy 4 microplate reader (Bio-Tek Instruments, Inc., Winooski, Vt.). IC50 results were determined using a sigmoidal equilibrium model fit (XLfit 5.2, ID Business Solutions Ltd.). […]

Compound | IC50 (C13) [µM] | IC50 (OVCAR2) [µM] | IC50 (IMCC3) [µM] | IC50 (OVCAR5) [µM] | IC50 (OVCAR8) [µM] | IC50 (HeyA8) [µM] | IC50 (OVCA420) [µM] | IC50 (Ovary1847) [µM] | IC50 (FUOV1) [µM] | IC50 (C13; Homo sapiens) [µM] | IC50 (OVCAR2; Homo sapiens) [µM] | IC50 (OVCAR5; Homo sapiens, OVCAR-5) [µM] | IC50 (OVCAR8; Homo sapiens, OVCAR-8) [µM] | IC50 (HeyA8; Homo sapiens, HEY A8) [µM] | IC50 (Ovary1847; Homo sapiens) [µM] | IC50 (FUOV1; Homo sapiens) [µM]
N.N.O=C([O-])C1(C(=O)[O-])CCC1.[Pt+2] [Carboplatin, carboplatin] | 56.8 | 45.5 | 69.5 | 125 | 56.1 | 291 | 166 | 172 | 87.9 |  |  |  |  |  |  | 
CC(=O)O[C@H]1C(=O)[C@@]2(C)[C@H]([C@H](OC(=O)c3ccccc3)[C@]3(O)C[C@H](OC(=O)[C@H](O)[C@@H](NC(=O)c4ccccc4)c4ccccc4)C(C)=C1C3(C)C)[C@]1(OC(C)=O)CO[C@@H]1C[C@@H]2O [Paclitaxel, paclitaxel] |  |  |  |  |  |  |  |  |  | 0.0032 | 0.0028 | 0.0056 | 0.0057 | 0.0174 | 0.0056 | 4.4
